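Tested at 5 concentrations; 48 h exposure; 96-well plates; endpoints linearly interpolated, else capped at highest concentration. Abbreviation: GI50, concentration required for 50% inhibition of growth. TGI denotes the concentration required for complete inhibition of growth.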
How the values were obtained:
Test in all cases: NCI-60 cell line screen, 48 h
ACHN renal = test system: ACHN renal
RXF 393 renal = test system: RXF 393 renal
OVCAR-5 ovarian = test system: OVCAR-5 ovarian
SNB-19 CNS = test system: SNB-19 CNS
LOX IMVI melanoma = test system: LOX IMVI melanoma
HCT-116 colon = test system: HCT-116 colon
HS 578T breast = test system: HS 578T breast
HT29 colon = test system: HT29 colon
MDA-MB-231 breast = test system: MDA-MB-231 breast
IGROV1 ovarian = test system: IGROV1 ovarian
NCI/ADR-RES ovarian = test system: NCI/ADR-RES ovarian
OVCAR-3 ovarian = test system: OVCAR-3 ovarian
RPMI-8226 leukemia = test system: RPMI-8226 leukemia
SK-OV-3 ovarian = test system: SK-OV-3 ovarian
A498 renal = test system: A498 renal
K-562 leukemia = test system: K-562 leukemia
COLO 205 colon = test system: COLO 205 colon
A549 NSCLC = test system: A549 NSCLC
HCT-15 colon = test system: HCT-15 colon
OVCAR-8 ovarian = test system: OVCAR-8 ovarian
MDA-MB-435 = test system: MDA-MB-435
T-47D breast = test system: T-47D breast
BT-549 breast = test system: BT-549 breast
MOLT-4 leukemia = test system: MOLT-4 leukemia
KM12 colon = test system: KM12 colon
DU-145 prostate = test system: DU-145 prostate
SF-268 CNS = test system: SF-268 CNS
PC-3 prostate = test system: PC-3 prostate
HL-60(TB) leukemia = test system: HL-60(TB) leukemia
UACC-62 melanoma = test system: UACC-62 melanoma
CCRF-CEM leukemia = test system: CCRF-CEM leukemia
U251 CNS = test system: U251 CNS
UACC-257 melanoma = test system: UACC-257 melanoma
M14 melanoma = test system: M14 melanoma
786-0 renal = test system: 786-0 renal
MCF7 breast = test system: MCF7 breast
HOP-62 NSCLC = test system: HOP-62 NSCLC
CAKI-1 renal = test system: CAKI-1 renal
EKVX NSCLC = test system: EKVX NSCLC
NCI-H460 lung = test system: NCI-H460 lung
SR leukemia = test system: SR leukemia
NCI-H23 lung = test system: NCI-H23 lung
SW-620 colon = test system: SW-620 colon
UO-31 renal = test system: UO-31 renal
SN12C renal = test system: SN12C renal
SF-295 CNS = test system: SF-295 CNS
SK-MEL-2 melanoma = test system: SK-MEL-2 melanoma
SK-MEL-5 melanoma = test system: SK-MEL-5 melanoma
SF-539 CNS = test system: SF-539 CNS
HCC-2998 colon = test system: HCC-2998 colon
TK-10 renal = test system: TK-10 renal
SK-MEL-28 melanoma = test system: SK-MEL-28 melanoma
OVCAR-4 ovarian = test system: OVCAR-4 ovarian
NCI-H522 lung = test system: NCI-H522 lung
SNB-75 CNS = test system: SNB-75 CNS
MALME-3M melanoma = test system: MALME-3M melanoma
NCI-H226 lung = test system: NCI-H226 lung

N#CC1=C(N)Nc2nc3ccccc3n2C1c1ccccc1 (centres undefined)
TGI (ACHN renal): 68.5 µM
TGI (RXF 393 renal): 56.3 µM
TGI (OVCAR-5 ovarian): > 100 µM
TGI (SNB-19 CNS): > 100 µM
TGI (LOX IMVI melanoma): > 100 µM
TGI (HCT-116 colon): > 100 µM
TGI (HS 578T breast): > 100 µM
TGI (HT29 colon): > 100 µM
TGI (MDA-MB-231 breast): > 100 µM
TGI (IGROV1 ovarian): > 100 µM
TGI (NCI/ADR-RES ovarian): > 100 µM
TGI (OVCAR-3 ovarian): 97.7 µM
TGI (RPMI-8226 leukemia): 31 µM
TGI (SK-OV-3 ovarian): > 100 µM
TGI (A498 renal): 96.1 µM
TGI (K-562 leukemia): > 100 µM
TGI (COLO 205 colon): > 100 µM
TGI (A549 NSCLC): > 100 µM
TGI (HCT-15 colon): > 100 µM
TGI (OVCAR-8 ovarian): > 100 µM
TGI (MDA-MB-435): > 100 µM
TGI (T-47D breast): 63.1 µM
TGI (BT-549 breast): 62.4 µM
TGI (MOLT-4 leukemia): > 100 µM
TGI (KM12 colon): > 100 µM
TGI (DU-145 prostate): > 100 µM
TGI (SF-268 CNS): > 100 µM
TGI (PC-3 prostate): > 100 µM
TGI (HL-60(TB) leukemia): > 100 µM
TGI (UACC-62 melanoma): > 100 µM
TGI (CCRF-CEM leukemia): > 100 µM
TGI (U251 CNS): > 100 µM
TGI (UACC-257 melanoma): > 100 µM
TGI (M14 melanoma): > 100 µM
TGI (786-0 renal): > 100 µM
TGI (MCF7 breast): > 100 µM
TGI (HOP-62 NSCLC): > 100 µM
TGI (CAKI-1 renal): > 100 µM
TGI (EKVX NSCLC): 57.4 µM
TGI (NCI-H460 lung): > 100 µM
TGI (SR leukemia): > 100 µM
TGI (NCI-H23 lung): > 100 µM
TGI (SW-620 colon): > 100 µM
TGI (UO-31 renal): > 100 µM
TGI (SN12C renal): > 100 µM
TGI (SF-295 CNS): > 100 µM
TGI (SK-MEL-2 melanoma): > 100 µM
TGI (SK-MEL-5 melanoma): > 100 µM
TGI (SF-539 CNS): > 100 µM

COc1ccc(-c2nc(-c3nc4cc(C)c(C)cc4[nH]3)cc3c2[nH]c2ccccc23)cc1
GI50 (ACHN renal): 2.6 µM
TGI (ACHN renal): 27.9 µM
GI50 (RXF 393 renal): 1.72 µM
TGI (RXF 393 renal): 3.66 µM
GI50 (HCC-2998 colon): 3.88 µM
TGI (HCC-2998 colon): 94.8 µM
GI50 (OVCAR-5 ovarian): 4.01 µM
TGI (OVCAR-5 ovarian): > 100 µM
GI50 (SNB-19 CNS): 68.9 µM
TGI (SNB-19 CNS): > 100 µM
GI50 (TK-10 renal): 7.85 µM
TGI (TK-10 renal): > 100 µM
GI50 (SK-MEL-28 melanoma): 2.89 µM
TGI (SK-MEL-28 melanoma): 10.5 µM
GI50 (LOX IMVI melanoma): 3.08 µM
TGI (LOX IMVI melanoma): 11.2 µM
GI50 (HCT-116 colon): 3.22 µM
TGI (HCT-116 colon): 13 µM
GI50 (HS 578T breast): 4.6 µM
TGI (HS 578T breast): > 100 µM
GI50 (HT29 colon): 3.76 µM
TGI (HT29 colon): > 100 µM
GI50 (OVCAR-4 ovarian): 6.98 µM
TGI (OVCAR-4 ovarian): > 100 µM
GI50 (MDA-MB-231 breast): 2.54 µM
TGI (MDA-MB-231 breast): 7.76 µM
GI50 (IGROV1 ovarian): 9.99 µM
TGI (IGROV1 ovarian): > 100 µM
GI50 (NCI/ADR-RES ovarian): 6.37 µM
TGI (NCI/ADR-RES ovarian): > 100 µM
GI50 (OVCAR-3 ovarian): 2.25 µM
TGI (OVCAR-3 ovarian): 4.6 µM
GI50 (RPMI-8226 leukemia): 1.77 µM
TGI (RPMI-8226 leukemia): 5.16 µM
GI50 (SK-OV-3 ovarian): 13 µM
TGI (SK-OV-3 ovarian): 48.1 µM
GI50 (A498 renal): 14.4 µM
TGI (A498 renal): 42.4 µM
GI50 (K-562 leukemia): 3.36 µM
TGI (K-562 leukemia): 20.9 µM
GI50 (COLO 205 colon): 1.79 µM
TGI (COLO 205 colon): 3.8 µM
GI50 (A549 NSCLC): 3.94 µM
TGI (A549 NSCLC): > 100 µM
GI50 (HCT-15 colon): 2.68 µM
TGI (HCT-15 colon): 72.5 µM
GI50 (NCI-H522 lung): 3 µM
TGI (NCI-H522 lung): 13.5 µM
GI50 (OVCAR-8 ovarian): 3.46 µM
TGI (OVCAR-8 ovarian): > 100 µM
GI50 (SNB-75 CNS): 3.44 µM
TGI (SNB-75 CNS): 35 µM
GI50 (MDA-MB-435): 3.97 µM
TGI (MDA-MB-435): > 100 µM
GI50 (T-47D breast): 3.09 µM
TGI (T-47D breast): 7.92 µM
GI50 (BT-549 breast): 2.96 µM
TGI (BT-549 breast): 8.21 µM
GI50 (MOLT-4 leukemia): 2.37 µM
TGI (MOLT-4 leukemia): 6.46 µM
GI50 (MALME-3M melanoma): 4.6 µM
TGI (MALME-3M melanoma): 16.5 µM
GI50 (KM12 colon): 3.5 µM
TGI (KM12 colon): 24.9 µM
GI50 (DU-145 prostate): 8.53 µM
TGI (DU-145 prostate): > 100 µM
GI50 (SF-268 CNS): 12.7 µM
TGI (SF-268 CNS): > 100 µM
GI50 (PC-3 prostate): 2.77 µM
TGI (PC-3 prostate): 44 µM
GI50 (HL-60(TB) leukemia): 2.59 µM
TGI (HL-60(TB) leukemia): 5.96 µM
GI50 (UACC-62 melanoma): 2.25 µM
TGI (UACC-62 melanoma): 6.7 µM
GI50 (CCRF-CEM leukemia): 2.51 µM
TGI (CCRF-CEM leukemia): 7.56 µM
GI50 (U251 CNS): 3.04 µM
TGI (U251 CNS): 16.6 µM
GI50 (UACC-257 melanoma): 3.47 µM
TGI (UACC-257 melanoma): 14.4 µM
GI50 (M14 melanoma): 4.16 µM
TGI (M14 melanoma): 24.8 µM
GI50 (786-0 renal): 2.6 µM
TGI (786-0 renal): 5.93 µM
GI50 (MCF7 breast): 3.22 µM
TGI (MCF7 breast): 59.7 µM
GI50 (HOP-62 NSCLC): 7.63 µM
TGI (HOP-62 NSCLC): > 100 µM
GI50 (CAKI-1 renal): 2.44 µM
TGI (CAKI-1 renal): 44.5 µM
GI50 (NCI-H226 lung): 3.32 µM
TGI (NCI-H226 lung): 54.8 µM
GI50 (NCI-H460 lung): 3.49 µM
TGI (NCI-H460 lung): > 100 µM
GI50 (SR leukemia): 2.33 µM
TGI (SR leukemia): 7.17 µM
GI50 (NCI-H23 lung): 11 µM
TGI (NCI-H23 lung): 68.2 µM
GI50 (SW-620 colon): 7.54 µM
TGI (SW-620 colon): > 100 µM
GI50 (UO-31 renal): 2.53 µM
TGI (UO-31 renal): 52.5 µM
GI50 (SN12C renal): 5.54 µM
TGI (SN12C renal): > 100 µM
GI50 (SK-MEL-2 melanoma): 3.28 µM
TGI (SK-MEL-2 melanoma): 8.25 µM
GI50 (SK-MEL-5 melanoma): 2.9 µM
TGI (SK-MEL-5 melanoma): 12.6 µM
GI50 (SF-539 CNS): 1.72 µM
TGI (SF-539 CNS): 4.24 µM
